Data taken from patent publication US11260129B2, “Phosphor-containing drug activator, suspension thereof, system containing the suspension, and methods for use” (IMMUNOLIGHT, LLC, priority 2016, dated 2022).

Experiments:
4T1-HER2 cells [1] = test: Cell viability by Guava flow cytometry (FIG. 13A); format: cell-based, murine; conditions: UVADEX alone, 1 Gy 80 kVp; p=0.97
Protocol: In-vitro studies were conducted on plated cells following standard procedures. Cells were maintained in RPMI-1640 supplemented with 10% fetal bovine serum and L-glutamine from GIBCO (Grand Island, N.Y.) growing in a humidified atmosphere of 5% CO2. After incubation, cells were trypsinized and plated evenly onto twelve 12-well plates for 24 hours. About 20 minutes prior to irradiation, the 12 wells of each plate were exposed to the following combinations of additives: […] Each plate had 12 wells with three wells for each of the four treatment arms. The plates were then irradiated with x-rays by placing the plate at a known distance from the x-ray source (50 cm). After irradiation, the cells were incubated on the plate for 48 hours prior to performing flow cytometry. For compatibility with 96-well Guava Nexin® assay, the remaining cells were again trypsinized. […] Two primary flow cytometry analyses were used, both determined at 48 hours after treatment. […] The first analysis evaluated was metabolic cell viability (herein referred to as cell viability) calculated from the number of whole cells per well as determined using forward scattering (ESC). […] In FIG. 13A, cell viability after treatment (10 μM 8-MOP equivalent dilution of UVADEX, 50 μg/mL phosphor, 1 Gy of 80 kVp radiation) as determined by Guava flow cytome cytometry is depicted. […]

4T1-HER2 cells [2] = test: Methylene blue staining for cell viability; format: cell-based, murine; conditions: individual components, 1 Gy of 80 kVp x-rays
Protocol: A plate having six (6) wells is subjected to treatment. FIG. 11 is a photographic depiction showing of Methylene Blue stain for cell viability post treatment with X-ray, phosphors and UVADEX. One well (#1) is the control. One well (#2) has phosphor coated with EC and DLC (H100). One well (#3) has phosphor coated with EC (but no DLC).
FIGS. 13A-13D illustrates the efficacy of treatment in-vitro in 4T1-HER2 cells, utilizing a regimen of 1/10-diluted UVADEX (with equivalent of 10 uM 8-MOP), 50 μg/mL phosphor 1 Gy of 80 kVp x-rays. […] Two results from two separate plates are shown, each with identical preparations to investigate reproducibility. Three concentrations of phosphor (25, 50, & 100 μg/mL) were tested with the UVADEX concentration fixed at 1/10 dilution (10 uM 8-MOP). […] In FIGS. 13A-13D, the anti-tumor effects of the treatment and its individual components on 4T1-HER2 cells. […] In FIGS. 13C and 13D, cell viability illustrated by methyl blue staining for identical plates each receiving 1 Gy of 80 kVp x-rays is depicted. […]

4T1-HER2 cells [3] = test: Annexin V positivity by flow cytometry (FIGS. 13B, 15, 16); format: cell-based, murine; conditions: UVADEX alone, with or without x-ray (p 0.90 and 0.09)
Protocol: In-vitro studies were conducted on plated cells following standard procedures. Cells were maintained in RPMI-1640 supplemented with 10% fetal bovine serum and L-glutamine from GIBCO (Grand Island, N.Y.) growing in a humidified atmosphere of 5% CO2. After incubation, cells were trypsinized and plated evenly onto twelve 12-well plates for 24 hours. About 20 minutes prior to irradiation, the 12 wells of each plate were exposed to the following combinations of additives: […] Each plate had 12 wells with three wells for each of the four treatment arms. The plates were then irradiated with x-rays by placing the plate at a known distance from the x-ray source (50 cm). After irradiation, the cells were incubated on the plate for 48 hours prior to performing flow cytometry. […] (after the 48 hour incubation) and plated onto the 96-well plate, Two primary flow cytometry analyses were used, both determined at 48 hours after treatment. […] The first analysis evaluated was metabolic cell viability (herein referred to as cell viability) calculated from the number of whole cells per well as determined using forward scattering (ESC). […] In FIG. 13A, cell viability after treatment (10 μM 8-MOP equivalent dilution of UVADEX, 50 μg/mL phosphor, 1 Gy of 80 kVp radiation) as determined by Guava flow cytome cytometry is depicted. […]

[4] = tested on: CT2A (murine malignant glioma); test: Cell-Titer-Glo Luminescence Cell Viability Assay, UV activated psoralen (FIG. 14A); format: cell-based; conditions: psoralen 40 μM; UV light 0, 0.25, 0.5, 1.0 J/cm2; N=4
Excerpt: (§1) Other assays were used to provide independent complimentary information on cell viability, e.g. Methylene blue staining and ATP-induced Luminescence imaging (Cell-Titer-Glo® Luminescence Cell Viability Assay). The luminescence imaging permitted investigation of the cytotoxicity of psoralen activated directly with a UV lamp, and in the absence of phosphors and x-ray radiation.
(§2) FIG. 14B presents data on CT2A malignant glioma cells, for a range of treatment parameters including variable x-ray dose (0, 0.67 and 1 Gy). phosphor concentration (50 or 100 μg) and psoralen concentration (8-MOP) at 10, 20 and 40 μM respectively. […] N=4 for each cell line at each UV light condition (0, 0.25, 0.5, 1.0 J/cm2). The psoralen concentration was 40 μM. For FIG. 14B, in CT2A cells, the treatment cytotoxicity increases with X-ray dose (0, 0.67 and 1.00 Gy respectively), concentration of 8-MOP psoralen (10, 20 and 40 μM respectively), and phosphor (50 and 100 μg/ml) respectively (p values shown thereon).

4T1 = test: as above; format: cell-based, murine; conditions: psoralen 40 μM; UV light 0, 0.25, 0.5, 1.0 J/cm2; N=4
Excerpt: as §1, §2

KP-B (sarcoma) = test: as above; format: cell-based, murine; conditions: psoralen 40 μM; UV light 0, 0.25, 0.5, 1.0 J/cm2; N=4
Excerpt: as §1, §2

## COc1c2occc2cc2ccc(=O)oc12 [UVADEX, 8-methoxypsoralen]
4T1-HER2 cells [1]
  effect of addition of radiation on cell viability: no significant effect
4T1-HER2 cells [2]
  effect in methyl blue staining (FIGS. 13C, 13D): little effect
4T1-HER2 cells [3]
  apoptotic activity (Annexin V): negligible apoptotic activity

## O=c1ccc2cc3ccoc3cc2o1 [psoralen]
[4]
  viable cells: reduce viable cells
4T1
  viable cells: reduce viable cells
KP-B (sarcoma)
  viable cells: reduce viable cells
